Laboratory results reported in patent publication US20080009448A1, “Peptide Derivative” (priority 2006, published 2008).

Columns and labels:
[1] = tested on: heat nociceptive stimulation; test: Anti-nociceptive activity test, tail-flick method; assay type: in vivo, mouse
Description: (1) Experimental animal, male ddy mice (Japan SLC), weighing the body weight in the range of 22 to 25 g, were used for the studies. The animals had been kept under constant conditions (room temperature 22±2° C., humidity 55±5%, 12 hours light-and-dark cycle having light time 9:00 to 21:00 and dark time 21:00 to 9:00) until used for an experiment. The animals were fed the mouse solid diet (F2, Funabashi farm. Funabashi, Japan) with unrestricted tap water intake.
SS8225-01, 02, 03 04, 05, 06, 07 and 08 as examples and SS8225-09, 10, 11 and 12 as comparison examples were used as the administered drugs. […] In addition only Liger solution was administered as an experimental control. The animals were left for 60 minutes in the plastic cage to become familiar to the environment prior to the test in which measured a latent time for each mouse before drug administration in accordance with a tail-flick method noted below. Heat was radiated to a part of each mouse tail which is 2 cm from the end of its tail. Each of heat radiation periods before beginning of tail-flick was measured as a false pain threshold. Mice which responded to the stimulation within 2.5 to 3.5 seconds were pre-selected for the test. Administration solution under one administration condition for one kind of drug was administered to one experimental animal group including 10 mice. After the body weight of each mouse was measured, each volume of the administration solution was adjusted to be 0.1 mL/10 g of mouse body weight and then the solution was administered. The administration methods were two methods of subcutaneous administration (s. c.) and oral administration (p. o.). On subcutaneous administration, the administration solution of 0.1 mL per 10 g of body weight (0.1 mL/10 g) was injected into the back of the mouse using 27 gauge needle. On oral administration, the administration solution of 0.1 mL per 10 g of body weight (0.1 mL/10 g) was administered using an oral sonde.
Heat was radiated to a part of each mouse's tail of respective experimental group, which is 2 cm from the end of its tail, at 15, 30 and 60 minutes after the drug administration according to the preset measurement interval and a latent time until respective mouse swung its tail was measured as a false pain threshold value. The maximum stimulation period (cut-off-time) was set as 10 seconds to minimize the damage to the stimulation part. The anti-nociceptive effect was evaluated quantitatively by calculating % MPE (% of maximum possible effect) according to the following formula. [formula] T1: A latent time until beginning of tail-flick before respective drug administration (seconds) T2: A latent time until beginning of tail-flick after respective drug administration (seconds) Tc: A maximum stimulation period (cut-off-time)
The graphs (FIG. 1, FIG. 3, FIG. 5, FIG. 7, FIG. 9, FIG. 11, FIG. 13, FIG. 15, FIG. 17, FIG. 19, FIG. 21, FIG. 23, FIG. 25, FIG. 27, FIG. 29, FIG. 31, FIG. 33 and FIG. 35) showing a time-course variation of % MPE were created, in which a vertical axis is an average value with a standard error (means ±S. E. M.) obtained by calculation of % MPE of respective animals of 10 mice every administration condition of respective drugs and a horizontal axis is a time after administration. After treating % MPE data of each animal of experimental groups with respective doses and % MPE data of each animal of the experimental group with a control Ringer's solution at the same measurement time every drugs using the two-way layout dispersion analysis (two-way ANOVA), the hazard-ratio of P<0.05 was decided to be a significant difference according to Bonferroni post-test.
A lasting time of anti-nociceptive activity of each drug in the present description is the lasting time of anti-nociceptive activity under the dose condition providing the longest lasting time.
ED50 is represented in the unit of mg/Kg.

[2] = tested on: MSU induced knee osteoarthritis pain; test: MSU induced knee osteoarthritis pain model, hind leg paw-pressure ratio; assay type: in vivo, rat; set-up: key to AUC of time-course variation of anti-nociceptive activity: AUC of the time course of anti-nociceptive activity as % MPE; conditions: for activity lasting-time: orally administered
Description: Experimental animal, male SD type rats, weighing the body weight in the range of 170 to 190 g, were used for the studies. The animals had been kept under constant conditions (room temperature 23±1° C., humidity 52±2%, 12 hours light-and-dark cycle having light time 7:00 to 19:00 and dark time 19:00 to 7:00) until used for an experiment. The animals were fed the mouse solid diet (F2, Funabashi farm. Funabashi, Japan) with unrestricted tap water intake, and kept in captivity for at least more than two days in a laboratory.
Any test drugs were dissolved in Ringer's solution (Fuso Yakuhin) to be used.
MSU was suspended with the suspension solution (10% of polyoxyethylene sorbitan mono-oleate (Tween 80: Nakarai Tesk) as 0.1 g per 1 mL. The animal was anesthetized with diethyl ether and after the surface of its left hind leg knee joint was wiped with 70% ethanol cotton, a porous administration of the suspension solution above noted was conducted into the cavity of let hind leg knee joint.
Pressures to both hind leg paw were measured using a paw-pressure measurement apparatus and recorded. Measurement time at respective times was 4.5 seconds. Calculated paw-pressure ratio (ppr) is a value calculated by dividing the pressure on the left hind leg by the pressure on the right hind leg according to the measured pressures on both hind legs.
The anti-nociceptive effect was evaluated quantitatively by calculating % MPE (% of maximum possible effect) according to the following formula. [formula]
In the formula, ppr 0 and ppr 1 are respective paw-pressure ratios on both hind legs before and after administration. ED50 value of anti-nociceptive activity was calculated using GraphPad Prism data-graph processing software version 4.0, San Diego, Calif., USA.
The strength of anti-nociceptive activity was represented by calculating the time-course variation of anti-nociceptive activity AUC using GraphPad Prism noted above.
Paw-pressure was measured twice at 4 hours after administration to provide ppr by calculation and the average of those values was both hind leg paw-pressure ratio before the drug administration. After the measurement of both hind leg paw-pressure before the drug administration, 0.1 mL of Ringer's solution or a test drug in Ringer's solution per 100 g rat body weight was orally administered, and then a paw-pressure was measured once every unit time after the oral administration.
Statistical processing was conducted using GraphPad Prism. After the two-way layout dispersion analysis, the hazard-ratio of P<0.05 was decided to be a significant difference according to Bonferroni post-test. The hazard-ratios were distinguished into less than 5% (P<0.05) and less than 1% (P<0.01) and represented as “*” and “**” in the same manner conducted for the Tail-flick method.

[3] = mice, p.o., at activity-peak time, parentheses = 95% confidence limit
[4] = mice, s.c., at activity-peak time, parentheses = 95% confidence limit
[5] = rat, MSU knee model, oral 15 mg/kg
[6] = rat, MSU knee model, oral 30 mg/kg

| Molecule | activity-peak time after the oral administration ([1]; mice, p.o.) | Oral ED50 [1, 3] | activity-peak time after the subcutaneous administration ([1]; mice, s.c.) | Subcutaneous ED50 [1, 4] | activity peak ([2]; rat, MSU knee model, oral) | AUC of time-course variation of anti-nociceptive activity [2, 5] | AUC of time-course variation of anti-nociceptive activity [2, 6] | activity lasting-time ([2]; rat, MSU knee model) | also measured |
| --- | --- | --- | --- | --- | --- | --- | --- | --- | --- |
| CN1CC[C@]23c4c5ccc(O)c4O[C@H]2[C@@H](O)C=C[C@H]3[C@H]1C5 [Morphine] | 45 min | 29.9 (26.37-33.95) mg/Kg | 30 min | 2.51 mg/kg | 90 min | 1724 | 4485 | 300 min | ED50 ([1]; Mus musculus, po, mice, p.o., at activity-peak time, parentheses = 95% confidence limit, read-out: Oral ED50): 29.9 mg/kg; lasting time of anti-nociceptive activity ([1]; p.o., dose of 67.5 mg/Kg): 5 h; lasting time of anti-nociceptive activity ([1]; s.c., dose of 5 mg/Kg): 1.5 h; AUC of time-course variation of anti-nociceptive activity ([2]; rat, MSU knee model, oral 60 mg/kg): 13883; ED50 ([2]; rat, MSU knee model, oral, %MPE, range in parentheses, read-out: ED50 value at activity peak): 37.2 mg/kg |
| Iminoethyl-[Tyr]-[D-Met(O)]-[Phe]-[N-MeβAla]-NHCH3 [SS8225-07] | 180 min | 2.51 mg/kg | 60 min | 0.05 mg/kg | 120 min | 7894 | 20162 | 360 min | dosage providing the same AUC, as part of morphine dosage ([1]; AUC of %MPE vs time, either oral or subcutaneous administration (FIG. 37, 38)): a half through one fiftieth; lasting time of anti-nociceptive activity ([1]; p.o., dose of 10 mg/Kg): 8 h; lasting time of anti-nociceptive activity ([1]; s.c., dose of 0.125 mg/Kg): 5 h; anti-nociceptive activity compared with morphine and oxycodone ([2]; knee osteoarthritis model, FIGS. 77 and 78): stronger than morphine, and stronger than or equal to oxycodone; activity lasting-time, times longer than for morphine ([2]; rat, MSU knee model, oral): 1.2 times; AUC of time-course variation of anti-nociceptive activity ([2]; rat, MSU knee model, oral 7.5 mg/kg): 2919; ED50 value at activity peak ([2]; rat, MSU knee model, oral, %MPE, range in parentheses): 16.95 (3.17-90.59) mg/Kg; anti-nociceptive activities, times stronger than for morphine ([2]; rat, MSU knee model, oral, from ED50 of AUCs): ~2.1 times; ED50 of AUCs ([2]; rat, MSU knee model, oral, range in parentheses): 40.38 (31.08-52.48) mg/kg; anti-nociceptive activity lasting-times, times longer than for morphine ([2]; rat, MSU knee model, oral, stated after ED50 at activity peak): 2.2 times |
